Type in all cases: in vitro ADME
Data set [1] can be described thus: Human liver microsomal stability assay (Test 1). Conditions: liver microsomes, 0.5 uM test compound, 37°C, up to 45 minutes, 0.5 mg microsomal protein, NADPH generating system, pH 7.4, read-out: Test 1 T1/2. On the procedure: (§1) Four assays on compounds were carried out by the following methods with the results shown in Table I. • (Test 1) Human liver microsomal stability assay was conducted by incubating 0.5 uM test compounds at 37°C for up to 45 minutes in 50 mM of potassium phosphate buffer (pH 7.4) containing 0.5 mg of microsomal protein and 50 µL of NADPH generating system (7.8 mg of glucose 6-phosphate, 1.7 mg of NADPH and 6 U of glucose 6-phosphate dehydrogenase per mL in 2% w/v of sodium bicarbonate). At 0, 5, 15, 30 and 45 min., an aliquot was taken, quenched with internal standard containing stop solution. No co-factor controls at 45 minutes were also prepared. After incubation, the samples were analyzed by LC-MS/MS. Peak area ratios of analyte to internal standard were used to calculate the intrinsic clearance. The intrinsic clearance (CLint) was determined from the first order elimination constant by non-linear regression. Formation of the active drug Compound A over the time course was also monitored by LC-MS/MS analysis. • (Test 2) Human plasma stability assay was conducted by incubating 0.5 uM test compounds at 37°C for up to 120 minutes in heparinated human plasma. At 0, 5, 15, 30, 60 and 120 […] min., an aliquot was taken, quenched with internal standard containing stop solution. After incubation, the samples were analyzed by LC-MS/MS. Peak area ratios of analyte to internal standard were used to calculate the half-life. Formation of the active drug Compound A over the time course was also monitored by LC-MS/MS analysis. • (Test 3) Human skin homogenate stability assay was conducted in a similar way as the human liver microsomal stability assay, by incubating 0.5 uM test compounds at 37°C for up to 45 minutes in 50 mM of potassium phosphate buffer (pH 7.4) containing 0.5 mg of human skin homogenate protein and 50 µL of NADPH generating system (7.8 mg of glucose 6-phosphate, 1.7 mg of NADPH and 6 U of glucose 6-phosphate dehydrogenase per mL in 2% w/v of sodium bicarbonate). At 0, 5, 15, 30 and 45 min., an aliquot was taken, quenched with internal standard containing stop solution. No co-factor controls at 45 minutes were also prepared. After incubation, the samples were analyzed by LC-MS/MS. Peak area ratios of analyte to internal standard were used to calculate the intrinsic clearance. The intrinsic clearance (CLint) was determined from the first order elimination constant by non-linear regression. Formation of the active drug Compound A over the time course was also monitored by LC-MS/MS analysis. • (Test 4) Human hepatocyte stability assay was conducted by incubating 0.5 uM test compound at 37°C for up to 240 minutes. Cryopreserved human hepatocytes were obtained from Celsis IVT (Baltimore, Maryland). Cells were thawed according to vendor's instructions and were suspended in William's Medium E to 0.5 million cells/mL. Test compounds were spiked into the cell suspension to initiate the reactions. At 0, 10,30,60, 120 and 240 min., an aliquot was taken, quenched with internal standard containing stop solution. After incubation, the samples were analyzed by LC-MS/MS. Peak area ratios of analyte to internal standard were used to calculate the intrinsic clearance. The intrinsic clearance (CLint) was determined from the first order elimination constant by non-linear regression. Formation of the active drug Compound A over the time course was also monitored by LC-MS/MS analysis.
In general terms: Liver microsomes are vesicles of endoplasmic reticulum, rich in cytochrome P450 enzymes.

Data set [2] in a line: Human plasma stability assay (Test 2). Conditions: 0.5 uM test compound, 37°C, up to 120 minutes, heparinated human plasma, read-out: Test 2 T1/2. On the procedure: as §1
A short description of data set [3]: Human skin homogenate stability assay (Test 3). The conditions noted are these: 0.5 uM test compound, 37°C, up to 45 minutes, 0.5 mg human skin homogenate protein, NADPH generating system, pH 7.4, read-out: Test 3 T1/2. As to the method: as §1

As for `CCCCCC(O)CCC1C(O)CC2Cc3c(cccc3OCC(=O)OCCCF)CC21` (stereo not shown) [Compound 4, [2-Hydroxy-1-(3-hydroxy-octyl)-2,3,3a,4,9,9a-hexahydro-1H-cyclopenta[b]naphthalen-5-yloxy]-acetic acid 3-fluoro-propyl ester], the half-life at 0.5 uM in data set [1] and in data set [2] was less than 15 min throughout.

Take `CCCCCC(O)CCC1C(O)CC2Cc3c(cccc3OCC(=O)OC3CCOC3)CC21` (stereo not shown) [Compound 5, [2-Hydroxy-1-(3-hydroxy-octyl)-2,3,3a,4,9,9a-hexahydro-1H-cyclopenta[b]naphthalen-5-yloxy]-acetic acid tetrahydro-furan-3-yl ester]: the half-life at 0.5 uM in data set [1] and in data set [2] was less than 15 min throughout.

`CCCCCC(O)CCC1C(O)CC2Cc3c(cccc3OCC(=O)OC3CC4CCC3C4)CC21` (stereo not shown) [Compound 19, [2-Hydroxy-1-(3-hydroxy-octyl)-2,3,3a,4,9,9a-hexahydro-1H-cyclopenta[b]naphthalen-5-yloxy]-acetic acid bicyclo[2.2.1]hept-2-yl ester]: the half-life at 0.5 uM is less than 15 min in data set [1], 31 to 60 min in data set [2] and 15 to 30 min in data set [3].

For the compound `CCCCCC(O)CCC1C(O)CC2Cc3c(cccc3OCC(=O)NCCCO)CC21` (stereo not shown) [Compound 11, 2-[2-Hydroxy-1-(3-hydroxy-octyl)-2,3,3a,4,9,9a-hexahydro-1H-cyclopenta[b]naphthalen-5-yloxy]-N-(3-hydroxy-propyl)-acetamide], the half-life at 0.5 uM in data set [1] was less than 15 min; in data set [2], more than 60 min.

`CCCCCC(O)CCC1C(O)CC2Cc3c(cccc3OCC(=O)OC)CC21` (stereo not shown) [Compound 15, [2-Hydroxy-1-(3-hydroxy-octyl)-2,3,3a,4,9,9a-hexahydro-1H-cyclopenta[b]naphthalen-5-yloxy]-acetic acid methyl ester]: the half-life at 0.5 uM in data set [1], in data set [2] and in data set [3] was less than 15 min throughout.

As for `CCCCCC(O)CCC1C(O)CC2Cc3c(cccc3OCC(=O)OC(C)C(=O)OC)CC21` (stereo not shown) [Compound 6, 2-{2-[2-Hydroxy-1-(3-hydroxy-octyl)-2,3,3a,4,9,9a-hexahydro-1H-cyclopenta[b]naphthalen-5-yloxy]-acetoxy}-propionic acid methyl ester], the half-life at 0.5 uM in data set [1] and in data set [2] was less than 15 min in each case.

For `CCCCCC(O)CCC1C(O)CC2Cc3c(cccc3OCC(=O)OC(C)C(C)(C)C)CC21` (stereo not shown) [Compound 18, [2-Hydroxy-1-(3-hydroxy-octyl)-2,3,3a,4,9,9a-hexahydro-1H-cyclopenta[b]naphthalen-5-yloxy]-acetic acid 1,2,2-trimethyl-propyl ester], the half-life at 0.5 uM in data set [1] is less than 15 min; in data set [2], more than 60 min; in data set [3], more than 60 min.

Regarding `CCCCCC(O)CCC1C(O)CC2Cc3c(cccc3OCC(=O)OCCO)CC21` (stereo not shown) [Compound 9, [2-Hydroxy-1-(3-hydroxy-octyl)-2,3,3a,4,9,9a-hexahydro-1H-cyclopenta[b]naphthalen-5-yloxy]-acetic acid 2-hydroxy-ethyl ester], the half-life at 0.5 uM in data set [1] is less than 15 min.

`CCCCCC(O)CCC1C(O)CC2Cc3c(cccc3OCC(=O)OC(C)(C)C)CC21` (stereo not shown) [Compound 28, [2-Hydroxy-1-(3-hydroxy-octyl)-2,3,3a,4,9,9a-hexahydro-1H-cyclopenta[b]naphthalen-5-yloxy]-acetic acid tert-butyl ester]: the half-life at 0.5 uM in data set [1] was less than 15 min; in data set [2], 15 to 30 min.

For `CCCCCC(O)CCC1C(O)CC2Cc3c(cccc3OCC(=O)OCC3CC3)CC21` (stereo not shown) [Compound 1, [2-Hydroxy-1-(3-hydroxy-octyl)-2,3,3a,4,9,9a-hexahydro-1H-cyclopenta[b]naphthalen-5-yloxy]-acetic acid cyclopropylmethyl ester], the half-life at 0.5 uM in data set [1] and in data set [2] was less than 15 min in each case.

Consider `CCCCCC(O)CCC1C(OC(=O)CC(C)C)CC2Cc3c(cccc3OCC(=O)OC)CC21` (stereo not shown) [Compound 23, 3-Methyl-butyric acid 1-(3-hydroxy-octyl)-5-methoxycarbonylmethoxy-2,3,3a,4,9,9a-hexahydro-1H-cyclopenta[b]naphthalen-2-yl ester], for which the half-life at 0.5 uM is less than 15 min in data set [1] and more than 60 min in data set [2].

For the compound `CCCCCC(O)CCC1C(O)CC2Cc3c(cccc3OCC(=O)OC(C)C)CC21` (stereo not shown) [Compound 20, [2-Hydroxy-1-(3-hydroxy-octyl)-2,3,3a,4,9,9a-hexahydro-1H-cyclopenta[b]naphthalen-5-yloxy]-acetic acid isopropyl ester], the half-life at 0.5 uM was less than 15 min in data set [1], 31 to 60 min in data set [2] and less than 15 min in data set [3].

Regarding `CCCCCC(O)CCC1C(OC(=O)C2CC2)CC2Cc3c(cccc3OCC(=O)OC)CC21` (stereo not shown) [Compound 24, Cyclopropanecarboxylic acid 1-(3-hydroxy-octyl)-5-methoxycarbonylmethoxy-2,3,3a,4,9,9a-hexahydro-1H-cyclopenta[b]naphthalen-2-yl ester], the half-life at 0.5 uM in data set [1] was less than 15 min; in data set [2] it was more than 60 min.

Consider `CCCCCC(O)CCC1C(O)CC2Cc3c(cccc3OCC(=O)OC(C)C(C)C)CC21` (stereo not shown) [Compound 17, [2-Hydroxy-1-(3-hydroxy-octyl)-2,3,3a,4,9,9a-hexahydro-1H-cyclopenta[b]naphthalen-5-yloxy]-acetic acid 1,2-dimethyl-propyl ester], for which the results for the half-life at 0.5 uM in data set [1], in data set [2] and in data set [3] were less than 15 min, 31 to 60 min and 15 to 30 min, respectively.

With `CCCCCC(O)CCC1C(OC(=O)CCC(=O)OCC)CC2Cc3c(cccc3OCC(=O)OC)CC21` (stereo not shown) [Compound 27, Succinic acid ethyl ester 1-(3-hydroxy-octyl)-5-methoxycarbonylmethoxy-2,3,3a,4,9,9a-hexahydro-1H-cyclopenta[b]naphthalen-2-yl ester], the half-life at 0.5 uM was less than 15 min in data set [1] and more than 60 min in data set [2].

As for `CCCCCC(O)CCC1C(O)CC2Cc3c(cccc3OCC(=O)NCC(F)(F)C(F)(F)F)CC21` (stereo not shown) [Compound 21, 2-[2-Hydroxy-1-(3-hydroxy-octyl)-2,3,3a,4,9,9a-hexahydro-1H-cyclopenta[b]naphthalen-5-yloxy]-N-(2,2,3,3,3-pentafluoro-propyl)-acetamide], the half-life at 0.5 uM is less than 15 min in data set [1] and more than 60 min in data set [2].

Turning to `CCCCCC(O)CCC1C(O)CC2Cc3c(cccc3OCC(=O)OCCOC)CC21` (stereo not shown) [Compound 10, [2-Hydroxy-1-(3-hydroxy-octyl)-2,3,3a,4,9,9a-hexahydro-1H-cyclopenta[b]naphthalen-5-yloxy]-acetic acid 2-methoxy-ethyl ester], the half-life at 0.5 uM in data set [1] is less than 15 min.

Consider `CCCCCC(O)CCC1C(O)CC2Cc3c(cccc3OCC(=O)NCC(=O)OC)CC21` (stereo not shown) [Compound 12, {2-[2-Hydroxy-1-(3-hydroxy-octyl)-2,3,3a,4,9,9a-hexahydro-1H-cyclopenta[b]naphthalen-5-yloxy]-acetylamino}-acetic acid methyl ester], for which the figures for the half-life at 0.5 uM in data set [1] and in data set [2] were less than 15 min and more than 60 min, respectively.

On to `CCCCCC(O)CCC1C(O)CC2Cc3c(cccc3OCC(=O)NCCN)CC21` (stereo not shown) [Compound 8, N-(2-Amino-ethyl)-2-[2-hydroxy-1-(3-hydroxy-octyl)-2,3,3a,4,9,9a-hexahydro-1H-cyclopenta[b]naphthalen-5-yloxy]-acetamide], for which the half-life at 0.5 uM in data set [1] lay in the range of 31 to 60 min.

The values are drawn from patent EP3828160A1, “TREPROSTINIL DERIVATIVE COMPOUNDS AND METHODS OF USING SAME” (Corsair Pharma, Inc., priority 2014, dated 2016).
